# Patent US20190160084A1, “METHODS FOR THE TREATMENT OF CANCER USING MEGLUMINE” (Dynamis Pharmaceuticals, Inc., priority 2016, published 2019)
# Assays:
# [1] = tested on: skin tumors; settings: DFMO given during the promotion phase; cited from earlier work
# [2] = tested on: THP-1 cells; assay: LPS-induced cytokine levels in media of THP-1 cells (Bio-Plex immunoassay); assay type: cell-based, human; settings: 25 ng LPS, 40 or 80 mM meglumine hydrochloride, 24 hours
# Procedure: THP-1 cells (human acute monocytic leukemia) were grown in a 24-well polystyrene plate in 1 ml of RPMI media with 10% fetal bovine serum. Cells were treated with 25 ng of lipopolysaccharide (LPS) (Sigma) in the presence or absence of 40 or 80 mM meglumine hydrochloride. After 24 hours, the media was centrifuged to remove the cells and analyzed for cytokine content using a Bio-Plex® immunoassay (Bio-Rad). The LPS induced levels of IL-17, IL-8, MIP-1 alpha, MIP-1 beta, IL-9 and IP-10 were decreased in the presence of meglumine (FIG. 5).
# [3] = tested on: skin tumors in DMBA-initiated K6/ODC transgenic mice; assay: Skin tumor formation and growth in DMBA-initiated K6/ODC transgenic mice, meglumine in drinking water; assay type: in vivo
# Procedure: K6/ODC transgenic mice are highly susceptible to developing skin tumors following a single treatment with a low subthreshold dose of the carcinogen DMBA. The effect of oral administration of meglumine in the drinking water was tested on the formation and growth of skin tumors in DMBA-initiated K6/ODC transgenic mice and their normal littermates. Four day old K6/ODC transgenic mice and their normal littermates were initiated with a single topical application of 300 nmol DMBA in 50 μl acetone.
# (§1) Upon weaning, K6/ODC transgenic mice and their normal littermates were divided into two treatment groups where they received ad lib either tap water or water with 37.5 mM meglumine (Sigma Chemical Co.) in their drinking water. Meglumine-containing water was changed twice a week. […] Mice were monitored for tumor development. Tumor growth was assessed morphometrically using calipers, and tumor volumes were calculated according to the formula V (mm^3)=π/6×A×B^2 (A is larger diameter, B is the smaller diameter) (Buzzai et al.).
# [4] = Tolerability of meglumine in the drinking water (water consumption, adverse effects); assay type: in vivo; settings: 37.5 mM meglumine in drinking water ad lib; K6/ODC transgenic mice and normal littermates
# Procedure: as §1
# [5] = K6/ODC transgenic mice, compared to control water, monitored 4 months
compound,measurement,setting,value
"NCCC[C@](N)(C(=O)O)C(F)F [DFMO, α-difluoromethylornithine]",development of skin tumors,[1],inhibits
CNC[C@H](O)[C@@H](O)[C@H](O)[C@H](O)CO.Cl [meglumine hydrochloride],LPS induced level of IL-8,[2],decreased
same,LPS induced level of IL-9,[2],decreased
same,LPS induced level of IL-17,[2],decreased
same,LPS induced level of IP-10,[2],decreased
same,LPS induced level of MIP-1 alpha,[2],decreased
same,LPS induced level of MIP-1 beta,[2],decreased
"CNC[C@H](O)[C@@H](O)[C@H](O)[C@H](O)CO [meglumine, (2R,3R,4R,5S)-6-methylaminohexane-1,2,3,4,5-pentol]",age at which all mice had skin tumors,"[3]; K6/ODC transgenic mice (6/6), 37.5 mM meglumine in drinking water, control (5/5): 50 days",73 days of age
same,age at which skin tumors first developed,"[3]; K6/ODC transgenic mice, 37.5 mM meglumine in drinking water, control tap water: 45 days",60 days of age
same,numbers of skin tumors,"[3]; K6/ODC transgenic mice, at any given age, compared to control tap water, monitored 4 months",fewer
same,cumulative tumor burden (average total tumor volume per mouse),[3]; [5],lower
same,tumor growth,[3]; [5],slowed
same,skin tumor development in normal littermates,"[3]; normal littermates n=10, with or without meglumine-supplemented water, single subthreshold dose of DMBA",no normal littermates
same,"adverse effects (weight loss, lethargy, ruffed fur, diarrhea, or general malaise)",[4],nor did it have any adverse effects
same,consumption of water,[4],did not affect
